Source: PubChem BioAssay (NCI)
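Here, GI50 denotes the concentration required for 50% inhibition of growth. Definition used: TGI = concentration required for complete inhibition of growth.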

Columns and labels:
Assay in all cases: NCI tumour cell line growth inhibition, 384-well format
786-0 renal = test system: 786-0 renal
A498 renal = test system: A498 renal
A549 NSCLC = test system: A549 NSCLC
ACHN renal = test system: ACHN renal
BT-549 breast = test system: BT-549 breast
CAKI-1 renal = test system: CAKI-1 renal
CCRF-CEM leukemia = test system: CCRF-CEM leukemia
COLO 205 colon = test system: COLO 205 colon
DU-145 prostate = test system: DU-145 prostate
HCC-2998 colon = test system: HCC-2998 colon
HCT-116 colon = test system: HCT-116 colon
HCT-15 colon = test system: HCT-15 colon
HL-60(TB) leukemia = test system: HL-60(TB) leukemia
HOP-62 NSCLC = test system: HOP-62 NSCLC
HOP-92 NSCLC = test system: HOP-92 NSCLC
HT29 colon = test system: HT29 colon
IGROV1 ovarian = test system: IGROV1 ovarian
K-562 leukemia = test system: K-562 leukemia
KM12 colon = test system: KM12 colon
LOX IMVI melanoma = test system: LOX IMVI melanoma
M14 melanoma = test system: M14 melanoma
MALME-3M melanoma = test system: MALME-3M melanoma
MCF7 breast = test system: MCF7 breast
MDA-MB-231 breast = test system: MDA-MB-231 breast
MDA-MB-435 melanoma = test system: MDA-MB-435 melanoma
MDA-MB-468 breast = test system: MDA-MB-468 breast
MOLT-4 leukemia = test system: MOLT-4 leukemia
NCI-H226 lung = test system: NCI-H226 lung
NCI-H23 lung = test system: NCI-H23 lung
NCI-H322M lung = test system: NCI-H322M lung
NCI-H460 NSCLC = test system: NCI-H460 NSCLC
NCI-H522 lung = test system: NCI-H522 lung
NCI/ADR-RES ovarian = test system: NCI/ADR-RES ovarian
OVCAR-3 ovarian = test system: OVCAR-3 ovarian
OVCAR-4 ovarian = test system: OVCAR-4 ovarian
OVCAR-5 ovarian = test system: OVCAR-5 ovarian
OVCAR-8 ovarian = test system: OVCAR-8 ovarian
PC-3 prostate = test system: PC-3 prostate
RPMI-8226 leukemia = test system: RPMI-8226 leukemia
RXF 393 renal = test system: RXF 393 renal
SF-268 CNS = test system: SF-268 CNS
SF-295 CNS = test system: SF-295 CNS
SF-539 CNS = test system: SF-539 CNS
SK-MEL-2 melanoma = test system: SK-MEL-2 melanoma
SK-MEL-28 melanoma = test system: SK-MEL-28 melanoma
SK-MEL-5 melanoma = test system: SK-MEL-5 melanoma
SK-OV-3 ovarian = test system: SK-OV-3 ovarian
SN12C renal = test system: SN12C renal
SNB-19 CNS = test system: SNB-19 CNS
SR leukemia = test system: SR leukemia
SW-620 colon = test system: SW-620 colon
T-47D breast = test system: T-47D breast
TK-10 renal = test system: TK-10 renal
U251 glioblastoma = test system: U251 glioblastoma
UACC-257 melanoma = test system: UACC-257 melanoma
UACC-62 melanoma = test system: UACC-62 melanoma
UO-31 renal = test system: UO-31 renal

COc1cc2c(Oc3ccc(NC(=O)C4(C(=O)Nc5ccc(F)cc5)CC4)cc3F)ccnc2cc1OCCCN1CCOCC1 gave a GI50 ([…]-0 renal) of 1190 nM, a TGI (786-0 renal) of 2420 nM and a GI50 (A498 renal) of 838 nM. For the same molecule, the TGI (A498 renal) was 2080 nM, the GI50 (A549 NSCLC) was 329 nM and the TGI (A549 NSCLC) was 1170 nM. It also gave a GI50 (ACHN renal) of 205 nM, a TGI (ACHN renal) of 718 nM and a GI50 (BT-549 breast) of 440 nM. It also gave a TGI (BT-549 breast) of 1510 nM, a GI50 (CAKI-1 renal) of 183 nM and a TGI (CAKI-1 renal) of 584 nM. It also gave a GI50 (CCRF-CEM leukemia) of 52.8 nM, a TGI (CCRF-CEM leukemia) of 189 nM and a GI50 (COLO 205 colon) of 211 nM. It also gave a TGI (COLO 205 colon) of 460 nM, a GI50 (DU-145 prostate) of 1160 nM and a TGI (DU-145 prostate) of 2390 nM. The GI50 (HCC-2998 colon) was 1110 nM, the TGI (HCC-2998 colon) was 2320 nM and the GI50 (HCT-116 colon) was 379 nM. For the same molecule, the TGI (HCT-116 colon) was 1570 nM, the GI50 (HCT-15 colon) was 419 nM and the TGI (HCT-15 colon) was 1590 nM. The GI50 (HL-60(TB) leukemia) was 194 nM, the TGI (HL-60(TB) leukemia) was 387 nM and the GI50 (HOP-62 NSCLC) was 668 nM. For the same molecule, the TGI (HOP-62 NSCLC) was 1930 nM, the GI50 (HOP-92 NSCLC) was 107 nM and the TGI (HOP-92 NSCLC) was 421 nM. For the same molecule, the GI50 (HT29 colon) was 324 nM, the TGI (HT29 colon) was 1220 nM and the GI50 (IGROV1 ovarian) was 275 nM. For the same molecule, the TGI (IGROV1 ovarian) was 990 nM, the GI50 (K-562 leukemia) was 40.3 nM and the TGI (K-562 leukemia) was 143 nM. It also gave a TGI (KM12 colon) of 931 nM, a GI50 (LOX IMVI melanoma) of 386 nM and a TGI (LOX IMVI melanoma) of 945 nM. It also gave a GI50 (M14 melanoma) of 293 nM, a TGI (M14 melanoma) of 882 nM and a GI50 (MALME-3M melanoma) of 185 nM. The TGI (MALME-3M melanoma) was 541 nM, the GI50 (MCF7 breast) was 331 nM and the TGI (MCF7 breast) was 1440 nM. It also gave a GI50 (MDA-MB-231 breast) of 361 nM, a TGI (MDA-MB-231 breast) of 1660 nM and a GI50 (MDA-MB-435 melanoma) of 331 nM. For the same molecule, the TGI (MDA-MB-435 melanoma) was 1200 nM, the GI50 (MDA-MB-468 breast) was 270 nM and the TGI (MDA-MB-468 breast) was 547 nM. For the same molecule, the GI50 (MOLT-4 leukemia) was 42.5 nM, the TGI (MOLT-4 leukemia) was 137 nM and the GI50 (NCI-H226 lung) was 276 nM. For the same molecule, the TGI (NCI-H226 lung) was 966 nM, the GI50 (NCI-H23 lung) was 46.3 nM and the TGI (NCI-H23 lung) was 642 nM. For the same molecule, the GI50 (NCI-H322M lung) was 866 nM, the TGI (NCI-H322M lung) was 2100 nM and the GI50 (NCI-H460 NSCLC) was 219 nM. The TGI (NCI-H460 NSCLC) was 1130 nM, the GI50 (NCI-H522 lung) was 211 nM and the TGI (NCI-H522 lung) was 817 nM. For the same molecule, the GI50 (NCI/ADR-RES ovarian) was 436 nM, the TGI (NCI/ADR-RES ovarian) was 1600 nM and the GI50 (OVCAR-3 ovarian) was 554 nM. The TGI (OVCAR-3 ovarian) was 1780 nM, the GI50 (OVCAR-4 ovarian) was 409 nM and the TGI (OVCAR-4 ovarian) was 1770 nM. It also gave a GI50 (OVCAR-5 ovarian) of 911 nM, a TGI (OVCAR-5 ovarian) of 2120 nM and a GI50 (OVCAR-8 ovarian) of 1190 nM. It also gave a TGI (OVCAR-8 ovarian) of 2430 nM, a GI50 (PC-3 prostate) of 1300 nM and a TGI (PC-3 prostate) of 2580 nM. It also gave a GI50 (RPMI-8226 leukemia) of 202 nM, a TGI (RPMI-8226 leukemia) of 492 nM and a GI50 (RXF 393 renal) of 158 nM. It also gave a TGI (RXF 393 renal) of 548 nM, a GI50 (SF-268 CNS) of 781 nM and a TGI (SF-268 CNS) of 2020 nM. For the same molecule, the GI50 (SF-295 CNS) was 94 nM, the TGI (SF-295 CNS) was 1510 nM and the GI50 (SF-539 CNS) was 135 nM. It also gave a TGI (SF-539 CNS) of 489 nM, a GI50 (SK-MEL-2 melanoma) of 300 nM and a TGI (SK-MEL-2 melanoma) of 1240 nM. For the same molecule, the GI50 (SK-MEL-28 melanoma) was 361 nM, the TGI (SK-MEL-28 melanoma) was 1430 nM and the GI50 (SK-MEL-5 melanoma) was 333 nM. It also gave a TGI (SK-MEL-5 melanoma) of 1460 nM, a GI50 (SK-OV-3 ovarian) of 522 nM and a TGI (SK-OV-3 ovarian) of 1790 nM. The GI50 (SN12C renal) was 175 nM, the TGI (SN12C renal) was 1060 nM and the GI50 (SNB-19 CNS) was 1180 nM. The TGI (SNB-19 CNS) was 2410 nM, the GI50 (SR leukemia) was 131 nM and the TGI (SR leukemia) was 261 nM. For the same molecule, the GI50 (SW-620 colon) was 201 nM, the TGI (SW-620 colon) was 747 nM and the GI50 (T-47D breast) was 1050 nM. For the same molecule, the TGI (T-47D breast) was 2230 nM, the GI50 (TK-10 renal) was 648 nM and the TGI (TK-10 renal) was 1910 nM. The GI50 (U251 glioblastoma) was 1140 nM, the TGI (U251 glioblastoma) was 2360 nM and the GI50 (UACC-257 melanoma) was 265 nM. The TGI (UACC-257 melanoma) was 859 nM, the GI50 (UACC-62 melanoma) was 369 nM and the TGI (UACC-62 melanoma) was 1550 nM. It also gave a GI50 (UO-31 renal) of 314 nM and a TGI (UO-31 renal) of 1110 nM.
